# Experimental data taken from patent US8551718B2 (Suven Life Science Limited, priority 2009, dated 2013).
# Like-named read-outs stand apart in the source and are kept apart here.
# Legend:
# [1] = target: T1, 5-HT2A receptor (Homo sapiens, UniProt P28223); assay: Radioligand (SPA) competition binding assay, [3H]Ketanserin; conditions: for Binding to 5-HT2A receptor (in words): radioligand binding assay using SPA beads
# [2] = target: T2, histamine H1 receptor (Homo sapiens, UniProt P35367); conditions: for Blockade of histamine induced luciferase activity (in words): CHO-H1 cells, compound 10 μM with 10 μM histamine
# [3] = target: T2, histamine H1 receptor; conditions: radioligand binding assay using SPA beads
# [4] = target: T3, adrenergic alpha1b receptor (Homo sapiens, UniProt P35368); assay: Radioligand (SPA) competition binding assay, [3H]Prazosin; conditions: for Binding to alpha1b receptor (in words): radioligand binding assay using SPA beads
# T3 sequence (P35368 1-520): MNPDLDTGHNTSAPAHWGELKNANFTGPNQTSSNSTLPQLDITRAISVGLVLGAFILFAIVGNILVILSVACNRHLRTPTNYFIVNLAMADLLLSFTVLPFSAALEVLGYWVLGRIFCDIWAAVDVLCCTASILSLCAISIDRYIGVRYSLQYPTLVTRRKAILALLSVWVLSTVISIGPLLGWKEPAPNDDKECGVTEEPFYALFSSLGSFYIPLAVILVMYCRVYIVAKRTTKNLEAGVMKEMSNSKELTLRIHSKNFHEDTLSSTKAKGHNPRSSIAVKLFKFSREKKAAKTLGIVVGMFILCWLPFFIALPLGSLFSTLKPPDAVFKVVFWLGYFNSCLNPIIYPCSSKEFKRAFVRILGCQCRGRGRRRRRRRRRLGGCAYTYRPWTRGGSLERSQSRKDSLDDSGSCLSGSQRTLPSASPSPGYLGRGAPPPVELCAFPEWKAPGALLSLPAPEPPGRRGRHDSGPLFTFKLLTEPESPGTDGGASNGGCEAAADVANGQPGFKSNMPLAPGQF
# [5] = target: T3, adrenergic alpha1b receptor; assay: CRE-Luc reporter gene functional assay in CHO-α1b cells; format: cell-based; design: expressed in transfected cells; host or cells: CHO cells (CHO-α1b), co-transfected with CRE-Luc reporter; conditions: for Blockade of epinephrine induced luciferase activity (in words): compound 10 μM with 10 μM epinephrine; for EC50: agonist mode, luciferase activity
# [6] = target: T1, 5-HT2A receptor; assay: CRE-Luc reporter gene functional assay in CHO-5HT2A cells; format: cell-based; design: expressed in transfected cells; host or cells: CHO cells (CHO-5HT2A), co-transfected with CRE-Luc reporter; conditions: for Antagonism of serotonin induced luciferase activity (in words): compound 10 μM with 10 μM serotonin; for Dose response induction of luciferase activity (in words): up to the highest dose tested
# [7] = target: T2, histamine H1 receptor; assay: cell-based
# [8] = target: T2, histamine H1 receptor; assay: biochemical
# [9] = target: T4, human adrenergic alpha1b receptor (Mesocricetus auratus, UniProt P18841); conditions: CHO cells expressing human adrenergic alpha1b receptor, literature; cited from earlier work
# T4 sequence (P18841 1-515): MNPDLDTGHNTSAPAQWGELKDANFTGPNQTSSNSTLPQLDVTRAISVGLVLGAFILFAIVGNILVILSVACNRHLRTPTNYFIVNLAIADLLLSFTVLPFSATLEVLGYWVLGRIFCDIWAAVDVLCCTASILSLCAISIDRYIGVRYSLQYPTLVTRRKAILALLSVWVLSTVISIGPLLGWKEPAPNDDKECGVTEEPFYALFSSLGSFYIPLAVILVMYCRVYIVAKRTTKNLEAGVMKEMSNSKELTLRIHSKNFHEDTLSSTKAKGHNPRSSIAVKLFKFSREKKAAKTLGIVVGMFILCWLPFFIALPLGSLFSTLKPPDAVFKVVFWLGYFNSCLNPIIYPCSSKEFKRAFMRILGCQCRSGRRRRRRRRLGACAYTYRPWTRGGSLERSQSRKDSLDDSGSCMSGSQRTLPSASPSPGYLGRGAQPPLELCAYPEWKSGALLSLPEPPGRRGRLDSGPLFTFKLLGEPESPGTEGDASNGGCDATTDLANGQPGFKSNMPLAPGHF
# T1 sequence (P28223 whole entry): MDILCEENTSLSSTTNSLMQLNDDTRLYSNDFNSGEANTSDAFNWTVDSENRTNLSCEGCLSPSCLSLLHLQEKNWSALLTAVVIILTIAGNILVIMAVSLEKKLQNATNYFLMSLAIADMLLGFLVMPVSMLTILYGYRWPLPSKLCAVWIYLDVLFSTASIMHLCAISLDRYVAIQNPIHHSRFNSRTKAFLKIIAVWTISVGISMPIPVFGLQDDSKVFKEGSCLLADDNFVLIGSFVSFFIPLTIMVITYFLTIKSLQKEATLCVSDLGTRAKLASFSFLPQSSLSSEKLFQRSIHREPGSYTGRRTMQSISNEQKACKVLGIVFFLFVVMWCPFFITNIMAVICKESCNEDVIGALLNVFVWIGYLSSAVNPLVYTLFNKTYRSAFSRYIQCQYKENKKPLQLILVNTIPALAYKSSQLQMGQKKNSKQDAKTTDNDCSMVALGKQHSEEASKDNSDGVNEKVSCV
# T2 sequence (P35367 whole entry): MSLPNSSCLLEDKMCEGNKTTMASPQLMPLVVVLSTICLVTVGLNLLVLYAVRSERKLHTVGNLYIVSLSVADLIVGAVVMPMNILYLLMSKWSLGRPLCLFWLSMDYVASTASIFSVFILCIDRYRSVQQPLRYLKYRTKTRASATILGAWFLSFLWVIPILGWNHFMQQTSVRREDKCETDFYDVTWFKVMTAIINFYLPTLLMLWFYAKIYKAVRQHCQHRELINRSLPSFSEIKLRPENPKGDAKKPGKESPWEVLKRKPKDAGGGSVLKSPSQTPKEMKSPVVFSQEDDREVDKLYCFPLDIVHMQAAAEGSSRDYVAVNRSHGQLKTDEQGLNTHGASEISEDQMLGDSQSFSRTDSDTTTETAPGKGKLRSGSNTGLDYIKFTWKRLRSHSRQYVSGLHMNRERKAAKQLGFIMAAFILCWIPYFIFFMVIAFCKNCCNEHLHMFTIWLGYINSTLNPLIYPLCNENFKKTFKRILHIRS
Binding to 5-HT2A receptor (in words) [1],Binding to H1 receptor (in words) [3],Ki [4] [µM],IC50 [5] [µM],Kb [5] [nM],Blockade of epinephrine induced luciferase activity (in words) ([5]; CHO-α1b cells),Antagonism of serotonin induced luciferase activity (in words) [6],Binding to alpha1b receptor (in words) [4],"EC50 ([5]; CHO-α1b cells, 0.1 to 10000 nM) [µM]",Compound,Dose response induction of luciferase activity (in words) [6],further results
no affinity,no affinity,> 10,> 10,> 10000,did not show any effect,did not show any impact,,,O=C(O)COCCN1CCN(C(c2ccccc2)c2ccc(Cl)cc2)CC1 (centres unmarked) [Cetirizine],,"Blockade of histamine induced luciferase activity (in words) [2]: inverse agonist property; Blockade of histamine induced luciferase activity (in words) ([2]; listed as cetirizine): completely blocked; Antagonism of epinephrine induced luciferase activity, dose response study (in words) ([5]; CHO-α1b cells): did not show any antagonism; Antagonism of serotonin induced luciferase activity, dose response study (in words) ([6]; compound 0.1 to 10,000 nM with 10 μM serotonin): none or partial antagonism"
,,,,0.501,completely blocked,,,,CN(C)CCCN1c2ccccc2Sc2ccc(Cl)cc21 [Chlorpromazine],,
did not show any binding,,> 10,,,,,did not show any binding,> 10,NCCc1c[nH]cn1 [Histamine],did not show the induction of luciferase activity,"Ki [1]: > 10 µM; Dose response induction of luciferase activity (in words) [2]: dose proportionate increase in luciferase activity; Dose response induction of luciferase activity (in words) ([5]; CHO-α1b cells, 0.1 to 10000 nM): did not respond; EC50 ([6]; agonist mode, luciferase activity, 0.1 nM to 10,000 nM): > 10 µM"

# The remaining lines, values behind:
Compound,Binding to 5-HT2A receptor (in words) [1],Binding to H1 receptor (in words) [3],Ki [4] [µM],IC50 [5] [µM],Kb [5] [nM],Blockade of epinephrine induced luciferase activity (in words) ([5]; CHO-α1b cells),Antagonism of serotonin induced luciferase activity (in words) [6],Binding to alpha1b receptor (in words) [4],"EC50 ([5]; CHO-α1b cells, 0.1 to 10000 nM) [µM]",Dose response induction of luciferase activity (in words) [6],further results
O=C(c1ccc(F)cc1)C1CCN(CCn2c(=O)[nH]c3ccccc3c2=O)CC1 [Ketanserin],,,[…],[…],[…],[…],fully antagonized,,,,
NCCc1c[nH]c2ccc(O)cc12 [Serotonin],,did not show any binding,> 10,,,,,did not show any binding,> 10,specific dose response effect,EC50 [7]: > 10 µM; Ki [8]: > 10 µM
NC[C@H](O)c1ccc(O)c(O)c1 [norepinephrine],,,,,,,,,,,pEC50 for cAMP accumulation [9]: 6.6
